Reference: publication PMC10025185, “A continuous in silico learning strategy to identify safety liabilities in compounds used in the leather and textile industry” (Archives of Toxicology, 2023)
Read-outs that look alike come from different tables or passages of the source.

Legend:
Bhas 42 cell line = assay: Bhas 42 cell transformation assay (carcinogenesis); assay type: cell-based
Experimental: This assay was carried out by adapting the in vitro Bhas 42 cell transformation assay method described in the OECD Guidance Document No. 231 ([2017]) based on the work of Sasaki et al. ([2014]).
It consists of two assays with a different test compound addition schedule to identify compounds with initiating activity (tumour initiators) or promoting activity (tumour promoters). Previously, a cell growth assay for 7 days is performed to set the assay doses of the CTA and another cell growth assay is concurrently performed to the CTA to verify that the selected doses meet the acceptance criteria for the tests.
The carcinogenesis potential of the compound was assayed by means of measuring the frequency of transformed foci (morphologically altered cells that form discrete anchorage-independent colonies) in the Bhas 42 cell line, which can be extrapolated to an assessment of carcinogenic potential. In the transformation assay, the incubation of compounds with two different treatment schedules allowed to identify the initiating or promoting carcinogenic potential of the compounds.

[1] = tested on: androgen and oestrogen receptors; assay: ED assays of androgen and oestrogen receptors (overall experimental ED result); assay type: cell-based
Experimental: The transcriptional activation of androgen receptor (AR) assays was carried out by adapting the OECD protocol 458 (OECD [2020]).
MDA-MB-453 cells (8000 cells/well) expressing an AR luciferase reporter were seeded into 384 white plates (Greiner 781098) in culture medium (DMEM (ATCC), 10% foetal bovine serum (Sigma Aldrich), 1% penicillin–streptomycin (Sigma-Aldrich), 75 µg/ml geneticin (Gibco) and incubated overnight at 37 °C 5% CO2 and 95% humidity. After this time, the cell culture medium was discarded and replaced by assay medium (DMEM (ATCC), 0.1% foetal bovine serum (Sigma-Aldrich), and 1% penicillin–streptomycin (Sigma Aldrich)).
For studying a putative agonist effect, compounds were added to the assay plate using an Echo 550 acoustic liquid handler and incubated overnight at 37 °C 5% CO2 and 95% humidity. For studying the putative antagonist effect, compounds were added using an Echo 550 acoustic liquid handler and incubated for 15 min at 37 °C 5% CO2 and 95% humidity. Then, 1 nM 5α-dihydrotestosterone (DHT) was added, and the cell plate was incubated overnight at 37 °C, 5% CO2, and 95% humidity. After compound incubation, the cell medium was removed, 5 µl of lysis buffer 1X (Promega) was added, and the cell plate was incubated with agitation 15 min at room temperature. A freeze–thaw cycle of 10 min at −80 °C and room temperature was performed. Then 25 µl of luciferase assay reagent (Promega) was added and luminescence was determined on an EnSpire plate reader (Perkin Elmer). Data was fitted to a four-parameter sigmoidal model with Prism 5.1 (Graphpad, Inc).
The transcriptional activation of oestrogen receptor (ER) assay was carried out by adapting the OECD protocol 455 (OECD [2021]) and the method of Li et al. ([2013]).
ER luciferase reporter T47D cells (5000 cells/well) were seeded into 384 white plates (Greiner 781098) in culture medium (RPMI 1640 (Thermo Fisher Scientific 52400), 10% foetal bovine serum (Sigma Aldrich F9665), 1% penicillin–streptomycin (Sigma-Aldrich P0781), 75 µg/ml Geneticin (Gibco 10131)) and incubated overnight at 37 °C and 5% CO2. The following day, the cell culture medium was discarded and replaced by assay medium (RPMI 1640 (Thermo Fisher Scientific 52,400), 0.1% foetal bovine serum (Sigma Aldrich F9665), and 1% penicillin–streptomycin (Sigma Aldrich P0781).
The assay was performed as stated before for the AR assay using 17β-estradiol as agonist instead of DHT.
ED was assessed by transactivation in vitro assays to identify agonists and antagonists of the androgen and oestrogen receptors.
Also, the experimental group analysed the endocrine-disrupting activity for the CMR compounds.

zebrafish embryos = tested on: zebrafish embryos
Experimental: Zebrafish embryos obtained and maintained as described previously for toxicity determination were used to determine (I) terato-carcinogenesis assayed as previously informed (Selderslaghs et al. [2009], [2012]) with modifications. In brief, embryos were incubated for 0 hpf up to 120 hpf in the presence and absence of tested compounds. Each condition was assayed in triplicate with 12 embryos per condition per replicate. The appearance of selected characteristics and malformations with respect to normal development were quantified for the eyes, otoliths, heart, circulation, hatching, skeletal deformities, and body position. For each concentration tested, we assessed the mortality and the presence of malformations at 24, 48, 72, 96, and 120 hpf using a light microscope. When possible, the lethal effects (LC50) and terato-carcinogenic effects (EC50) were determined using the ToxRat software. Based on these values, a teratogenic index (TI) was calculated as LC50/EC50. Based on previous studies, we considered a compound to be a teratogen when TI > 2 at 120 hpf. When no TI could be calculated due to no malformations induction to a degree extensive enough to calculate the EC50 in the presence of high toxicity, the compound was considered a non-teratogen. (II) Neurotoxicity was assayed by evaluating the locomotor activity in embryos exposed to the tested compounds from 0 to 120 hpf using Zebrabox and Zebralab (ViewPoint). We tested three concentrations (24 embryos per concentration) below the NOEC to avoid readily toxic concentrations. After incubation with tested compounds for 120 hs in 96-well plates, the activity of larvae in response to transitions from dark to light was evaluated. The protocol involved an initial 10 min acclimation period inside the Zebrabox, followed by three cycles of light–dark of 10 min each. After the end of each cycle, the integrated activity of each embryo was registered. Statistical analysis was done using ANOVA, followed by the Tukey post hoc test. Differences were considered significant when p < 0.05. Dead embryos were not considered in the analysis. (III) The endocrine-disrupting effect in zebrafish embryos was assayed by real-time PCR as previously reported (Jarque et al. [2019]) with modifications. In brief, 0 hpf embryos (12 embryos per condition in triplicate) were incubated with selected compounds for up to 120 hpf. After incubation, treated (embryos incubated at the concentration right below the NOEC) and control embryos were collected in RNA later and kept at − 20°C until use. RNA was extracted from the samples using the RNeasy Mini Kit (QIAGEN) and was followed by cDNA synthesis using random primers and the AffinityScript Multi Temperature cDNA Synthesis Kit (Agilent Technologies). Finally, real-time PCR was performed for eight target genes to obtain data on the estrogenic (cytochrome P450 family 19 subfamily A member 1: cyp19a1b, and vitellogenin: vtg1), androgenic (cytochrome P450 family 2 […]: cyp2k22, and cytosolic sulphotransferase 3: sult2st3), and thyroid hormone (thyroid peroxidase: tpo, thyroid hormone receptor alpha: tra, transthyretin: ttr, and iodothyronine deiodinase 2: dio2) effect of the tested compounds. Significant changes in gene expression between controls and treated samples were considered as a potential endocrine-disrupting effect.

[2] = CMR experimental result (carcinogenicity, micronucleus and reprotoxicity combined, logical OR)
Description: For comparison with the prediction results, the results of the carcinogenicity, micronucleus, and reprotoxicity assays were combined using a logical OR operator. Therefore, we consider that compounds with a positive result for any of these three experimental assays is a CMR positive.

[3] = real-time PCR, zebrafish embryos
[4] = significant increase in foci frequency in at least two sequential concentrations
[5] = positive in any of the three experimental assays
[6] = second of two columns headed Neurotoxic

Molecule	Carcinogen (C) (Bhas 42 cell line)	Experimental result [1]	Reprotoxicity (R) Neurotoxic (zebrafish embryos; in vivo)	induction of cytochrome P450 2 K (zebrafish embryos; [3])	induction of vitellogenin (zebrafish embryos; [3])	CMR experimental result [2]	Reprotoxicity (R) Endocrine disruptor (zebrafish embryos; in vivo)	Carcinogen (C) (Bhas 42 cell line; [4])	CMR experimental result [2, 5]	Experimental result ([1]; endocrine disruptor yes/no)	Reprotoxicity (R) Endocrine disruptor (zebrafish embryos; gene expression, 120 hpf, concentration right below NOEC)	Reprotoxicity (R) Neurotoxic (zebrafish embryos; [6])
CCCCC(CC)CN (stereo not drawn) [2-Ethylhexylamine]	Yes	Yes	No	induced	induced	–	–	–	–	–	–	–
CNC(=O)c1cc(Cl)ccn1.Cl [4-Chloro-N-methylpyridine-2-carboxamide hydrochloride (1:1)]	No	No	No	–	–	NO	No	–	–	–	–	–
Reaction mass of cis-4-(isopropyl) cyclohexanemethanol and trans-4-(isopropyl) cyclohexanemethanol	–	–	–	–	–	–	–	Yes	YES	No	No	No
O=C(OCCc1ccccc1)c1ccccc1 [Phenethyl benzoate]	No	No	No	–	–	–	No	–	–	–	–	–
CCN(CC)c1ccc(N=Nc2c(Cl)cc([N+](=O)[O-])cc2[N+](=O)[O-])c(NC(C)=O)c1 [N-[2-[(2-chloro-4,6-dinitrophenyl)azo]-5-(diethylamino)phenyl]acetamide]	–	–	–	induced	–	–	–	Yes	YES	Yes	–	No
